Results: patent publication US20240254103A9, “NOVEL PYRIMIDINE DERIVATIVE, AND COMPOSITION FOR PREVENTING OR TREATING NEURODEGENERATIVE DISEASES AND CANCER, COMPRISING SAME” (WHAN IN PHARMACEUTICAL CO., LTD., priority 2020, published 2024)

Assays:
[1] = Blood-brain barrier (BBB) penetration, LC-MS/MS of plasma and brain tissue after oral administration; assay type: in vivo; conditions: oral 10 mg/kg, three hours after administration
Experimental: Test substances were each orally administered at a dose of 10 mg/kg. Three hours later, the animals were sacrificed and blood samples were immediately taken from the heart and centrifuged to obtain plasma samples. In order to remove the blood remaining in the body, 20 ml of saline containing 10 U/ml heparin were perfused through the heart, after which the brain was excised. The brain was homogenized together with three volumes of a PBS buffer. For quantitative analysis in the prepared plasma and brain tissue, advantage was taken of LC-MS/MS (Agilent, Santa Clara, Calif., USA). Separation in LC was conducted with a mobile phase consisting of 80% of acetonitrile and 20% of water containing 0.1% formic acid. For each substance, the eluting buffer was run for a total of 3 minutes at a flow rate of 0.3 ml/min. Each substance was quantitated using a multiple reaction monitoring method (for comparative compounds 4 and 5, the oral Parkinson's disease drugs DNL-151 and DNL-201 were used as LRRK2 protein inhibitors, respectively).

[2] = molecular target: T1, wild-type LRRK2 (Homo sapiens, UniProt Q5S007); assay: Inhibitory activity against LRRK2: competition binding to ligand-affinity beads, DNA-tagged kinase quantitated by qPCR; conditions: % of ctrl; for remaining binding at 0.1 µM: 100 nM compound, read-out: Remaining kinase activity(%) at 100 nM LRRK2(WT)
T1 construct: DNA tag for qPCR detection (not a peptide; the protein part that carries it is not described); made in house; host or cells: HEK 293 cells (the same paragraph also describes T7 phage grown in E. coli BL21)
Outline: (§1)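 Human LRRK2 H970–E2527, wild type or G2019S, was expressed as DNA-tagged kinase (T7 phage in E. coli or HEK293) and competed for 1 h against a biotinylated ligand on streptavidin beads. Bound kinase was eluted with 0.5 µM free ligand and quantified by qPCR. Values are % of control at 100 nM (both forms) and at 10 and 50 nM (wild type).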

[3] = molecular target: T2, mutant LRRK2 (G2019S) (Homo sapiens, UniProt Q5S007, G2019S); assay: as above; conditions: 100 nM compound; % of ctrl; read-out: Remaining kinase activity(%) at 100 nM LRRK2(G2019Smutant)
T2 construct: DNA tag for qPCR detection (not a peptide; the protein part that carries it is not described); made in house; host or cells: HEK 293 cells (the same paragraph also describes T7 phage grown in E. coli BL21)
Outline: as §1

T1 sequence (Q5S007 970-2527): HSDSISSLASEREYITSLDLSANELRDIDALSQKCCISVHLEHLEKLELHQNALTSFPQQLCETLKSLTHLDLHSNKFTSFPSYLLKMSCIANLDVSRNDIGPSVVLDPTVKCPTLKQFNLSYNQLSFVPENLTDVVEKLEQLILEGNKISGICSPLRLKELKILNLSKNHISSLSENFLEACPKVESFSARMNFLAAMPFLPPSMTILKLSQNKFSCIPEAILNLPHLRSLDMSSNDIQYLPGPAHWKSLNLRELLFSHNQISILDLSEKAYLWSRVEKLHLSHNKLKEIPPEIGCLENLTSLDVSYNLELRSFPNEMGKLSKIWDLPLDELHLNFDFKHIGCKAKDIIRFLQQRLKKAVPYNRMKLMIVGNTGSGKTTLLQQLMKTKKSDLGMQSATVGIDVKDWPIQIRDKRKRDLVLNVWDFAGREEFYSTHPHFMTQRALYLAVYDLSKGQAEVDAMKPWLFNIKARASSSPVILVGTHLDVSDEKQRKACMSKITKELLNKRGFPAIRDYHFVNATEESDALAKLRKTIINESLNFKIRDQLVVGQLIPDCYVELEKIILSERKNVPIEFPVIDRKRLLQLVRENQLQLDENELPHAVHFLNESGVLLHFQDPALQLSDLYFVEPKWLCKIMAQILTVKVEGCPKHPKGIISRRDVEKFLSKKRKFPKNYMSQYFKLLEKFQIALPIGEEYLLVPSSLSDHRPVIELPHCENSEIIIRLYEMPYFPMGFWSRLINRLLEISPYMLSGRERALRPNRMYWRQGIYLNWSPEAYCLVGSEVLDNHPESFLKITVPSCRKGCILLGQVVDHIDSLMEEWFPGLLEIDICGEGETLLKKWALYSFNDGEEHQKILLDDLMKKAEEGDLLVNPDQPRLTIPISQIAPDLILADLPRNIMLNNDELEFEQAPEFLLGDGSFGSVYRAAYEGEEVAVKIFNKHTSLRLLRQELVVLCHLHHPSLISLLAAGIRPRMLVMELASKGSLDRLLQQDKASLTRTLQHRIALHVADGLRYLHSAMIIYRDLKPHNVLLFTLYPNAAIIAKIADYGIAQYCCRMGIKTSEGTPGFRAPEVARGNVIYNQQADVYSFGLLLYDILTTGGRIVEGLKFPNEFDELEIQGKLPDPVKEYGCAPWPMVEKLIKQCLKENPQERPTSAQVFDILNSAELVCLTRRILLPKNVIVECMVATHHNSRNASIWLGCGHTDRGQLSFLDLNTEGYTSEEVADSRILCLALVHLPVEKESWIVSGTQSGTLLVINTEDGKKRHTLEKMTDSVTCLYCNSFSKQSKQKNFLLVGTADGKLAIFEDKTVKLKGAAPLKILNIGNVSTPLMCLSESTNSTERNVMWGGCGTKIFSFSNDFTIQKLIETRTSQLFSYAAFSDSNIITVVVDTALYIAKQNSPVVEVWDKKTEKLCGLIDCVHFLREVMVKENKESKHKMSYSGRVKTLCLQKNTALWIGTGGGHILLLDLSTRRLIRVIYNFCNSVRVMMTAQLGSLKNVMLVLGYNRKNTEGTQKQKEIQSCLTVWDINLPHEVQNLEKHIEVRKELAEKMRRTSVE
T2 sequence (Q5S007 970-2527 G2019S): as the sequence (Q5S007 970-2527) above, with G1050S counted along it

| Compound | effective concentration in the brain tissue, fold higher compared to comparative compound-4 (DNL-151) [1] [fold] | effective concentration in the brain tissue, fold higher compared to comparative compound-5 (DNL-201) [1] [fold] | remaining binding at 0.01 µM ([2]; 10 nM compound, read-out: LRRK2(WT) Remaining kinase activity(%) at 10 nM) [%] | remaining binding at 0.05 µM ([2]; 50 nM compound, read-out: LRRK2(WT) Remaining kinase activity(%) at 50 nM) [%] | remaining binding at 0.1 µM [2] [%] | remaining binding at 0.1 µM [3] [%] |
| --- | --- | --- | --- | --- | --- | --- |
| COc1cc(C(=O)N2CCOCC2)ccc1Nc1ncc(Cl)c(-c2cnn(C(C)C)c2)n1 [Compound 37, (4-((5-chloro-4-(1-isopropyl-1H-pyrazol-4-yl)pyrimidin-2-yl)amino)-3-methoxyphenyl)(morpholino)methanone] | 1.64 | 2.77 | < 50 | < 30 | < 10 | < 10 |
| COc1cc(C(=O)N2C[C@H]3CC[C@@H](C2)O3)ccc1Nc1ncc(Cl)c(-c2cnn(C)c2)n1 [Compound 51, ((1R,5S)-8-oxa-3-azabicyclo[3.2.1]octan-3-yl)(4-((5-chloro-4-(1-methyl-1H-pyrazol-4-yl)pyrimidin-2-yl)amino)-3-methoxyphenyl)methanone] |  |  |  |  | < 30 | < 30 |
| COc1cc(C(=O)N2CCOCC2)ccc1Nc1ncc(Cl)c(-c2cnn(CC#N)c2)n1 [Compound 6, 2-(4-(5-chloro-2-((2-methoxy-4-(morpholine-4-carbonyl)phenyl)amino)pyrimidin-4-yl)-1H-pyrazol-1-yl)acetonitrile] |  |  |  |  | < 50 | < 30 |
| COc1cc(C(=O)N2CCOCC2)ccc1Nc1ncc(C(F)(F)F)c(-c2cnn(C3CCOCC3)c2)n1 [Compound 29, (3-methoxy-4-((4-(1-(tetrahydro-2H-pyran-4-yl)-1H-pyrazol-4-yl)-5-(trifluoromethyl)pyrimidin-2-yl)amino)phenyl)(morpholino)methanone] |  |  |  |  | < 50 | < 30 |
| COCn1cc(-c2nc(Nc3ccc(C(=O)N4CCOCC4)cc3OC)ncc2Cl)cn1 [Compound 16, (4-((5-chloro-4-(1-(methoxymethyl)-1H-pyrazol-4-yl)pyrimidin-2-yl)amino)-3-methoxyphenyl)(morpholino)methanone] |  |  |  |  | < 30 | < 10 |
| COc1cc(C(=O)N2CCN(C(C)C)CC2)ccc1Nc1ncc(Cl)c(-c2cnn(C)c2)n1 [Compound 34, (4-((5-chloro-4-(1-methyl-1H-pyrazol-4-yl)pyrimidin-2-yl)amino)-3-methoxyphenyl)(4-isopropylpiperazin-1-yl)methanone] |  |  |  |  | < 10 | < 30 |
| COc1cc(C(=O)N2CCC(N3CCN(C)CC3)CC2)ccc1Nc1ncc(C(F)(F)F)c(-c2cnn(C)c2)n1 [Compound 31, (3-methoxy-4-((4-(1-methyl-1H-pyrazol-4-yl)-5-(trifluoromethyl)pyrimidin-2-yl)amino)phenyl)(4-(4-methylpiperazin-1-yl)piperidin-1-yl)methanone] |  |  |  |  | < 10 | < 30 |
| COc1cc(C(=O)N2CCOCC2)ccc1Nc1ncc(Cl)c(-c2cnn(CCO)c2)n1 [Compound 4, (4-((5-chloro-4-(1-(2-hydroxyethyl)-1H-pyrazol-4-yl)pyrimidin-2-yl)amino)-3-methoxyphenyl)(morpholino)methanone] |  |  |  |  | < 30 | < 30 |
| COc1cc(C(=O)N2CCOCC2)ccc1Nc1ncc(Cl)c(-c2ccccc2)n1 [Comparative Compound 1, (4-((5-chloro-4-phenylpyrimidin-2-yl)amino)-3-methoxyphenyl)(morpholino)methanone, reference compound] |  |  |  |  | ≥ 50 | ≥ 50 |
| COc1cc(C(=O)N2CCOCC2)c(F)cc1Nc1ncc(Cl)c(-c2cnn(C(C)C)c2)n1 [Compound 49, (4-((5-chloro-4-(1-isopropyl-1H-pyrazol-4-yl)pyrimidin-2-yl)amino)-2-fluoro-5-methoxyphenyl)(morpholino)methanone] |  |  |  |  | < 10 | < 10 |
| COc1cc(C(=O)NC2CCN(C)CC2)ccc1Nc1ncc(Cl)c(-c2cnn(C)c2)n1 [Compound 38, 4-((5-chloro-4-(1-methyl-1H-pyrazol-4-yl)pyrimidin-2-yl)amino)-3-methoxy-N-(1-methylpiperidin-4-yl)benzamide] |  |  |  |  | < 10 | < 10 |
| COc1ccc(Cn2cc(-c3nc(Nc4ccc(C(=O)N5CCOCC5)cc4OC)ncc3Cl)cn2)cc1 [Compound 17, (4-((5-chloro-4-(1-(4-methoxybenzyl)-1H-pyrazol-4-yl)pyrimidin-2-yl)amino)-3-methoxyphenyl)(morpholino)methanone] |  |  |  |  | < 30 | < 50 |
| COc1cc(C(=O)N2CC3(CCO3)C2)ccc1Nc1ncc(Cl)c(-c2cnn(C)c2)n1 [Compound 33, (4-((5-chloro-4-(1-methyl-1H-pyrazol-4-yl)pyrimidin-2-yl)amino)-3-methoxyphenyl)(1-oxa-6-azaspiro[3.3]heptan-6-yl)methanone] |  |  |  |  | < 30 | < 50 |
| COc1cc(C(=O)N2CCN(C3COC3)CC2)ccc1Nc1ncc(Cl)c(-c2cnn(C)c2)n1 [Compound 50, (4-((5-chloro-4-(1-methyl-1H-pyrazol-4-yl)pyrimidin-2-yl)amino)-3-methoxyphenyl)(4-(oxetan-3-yl)piperazin-1-yl)methanone] |  |  |  |  | < 10 | < 10 |
| COc1cc(C(=O)N2CCC3(CC2)COC3)ccc1Nc1ncc(Cl)c(-c2cnn(C)c2)n1 [Compound 32, (4-((5-chloro-4-(1-methyl-1H-pyrazol-4-yl)pyrimidin-2-yl)amino)-3-methoxyphenyl)(2-oxa-7-azaspiro[3.5]nonan-7-yl)methanone] |  |  |  |  | < 50 | < 30 |
| COc1cc(C(=O)N2CCC(F)(F)CC2)ccc1Nc1ncc(Cl)c(-c2cnn(C)c2)n1 [Compound 41, (4-((5-chloro-4-(1-methyl-1H-pyrazol-4-yl)pyrimidin-2-yl)amino)-3-methoxyphenyl)(4,4-difluoropiperidin-1-yl)methanone] |  |  |  |  | < 30 | < 50 |
| COc1cc(C(=O)N2CCOCC2)ccc1Nc1ncc(Cl)c(-c2cnn(C(C)(C)CC#N)c2)n1 [Compound 27, 3-(4-(5-chloro-2-((2-methoxy-4-(morpholine-4-carbonyl)phenyl)amino)pyrimidin-4-yl)-1H-pyrazol-1-yl)-3-methylbutanenitrile] |  |  |  |  | < 10 | < 10 |
| COc1cc(C(=O)N2CCOCC2)ccc1Nc1ncc(Cl)c(-c2cnn(CCC#N)c2)n1 [Compound 5, 3-(4-(5-chloro-2-((2-methoxy-4-(morpholine-4-carbonyl)phenyl)amino)pyrimidin-4-yl)-1H-pyrazol-1-yl)propanenitrile] |  |  |  |  | < 10 | < 10 |
| COc1cc(C(=O)N2CCOCC2)ccc1Nc1ncc(Cl)c(-c2cnn(C(F)F)c2)n1 [Compound 15, (4-((5-chloro-4-(1-(difluoromethyl)-1H-pyrazol-4-yl)pyrimidin-2-yl)amino)-3-methoxyphenyl)(morpholino)methanone] |  |  |  |  | < 50 | < 30 |
| COCCN(C)C(=O)c1ccc(Nc2ncc(Cl)c(-c3cnn(C)c3)n2)c(OC)c1 [Compound 21, 4-((5-chloro-4-(1-methyl-1H-pyrazol-4-yl)pyrimidin-2-yl)amino)-3-methoxy-N-(2-methoxyethyl)-N-methylbenzamide] |  |  |  |  | < 30 | < 30 |
| COCCn1cc(-c2nc(Nc3ccc(C(=O)N4CCOCC4)cc3OC)ncc2Cl)cn1 [Compound 28, (4-((5-chloro-4-(1-(2-methoxyethyl)-1H-pyrazol-4-yl)pyrimidin-2-yl)amino)-3-methoxyphenyl)(morpholino)methanone] |  |  |  |  | < 30 | < 30 |
| COc1cc(C(=O)N2CCOCC2)ccc1Nc1ncc(Cl)c(-c2cnn(C3CC3)c2)n1 [Compound 58, (4-((5-chloro-4-(1-cyclopropyl-1H-pyrazol-4-yl)pyrimidin-2-yl)amino)-3-methoxyphenyl)(morpholino)methanone] |  |  |  |  | < 30 | < 10 |
| COc1cc(C(=O)N2CCC3(CC2)COC3)ccc1Nc1ncc(Cl)c(-c2cnn(C3CCOCC3)c2)n1 [Compound 35, (4-((5-chloro-4-(1-(tetrahydro-2H-pyran-4-yl)-1H-pyrazol-4-yl)pyrimidin-2-yl)amino)-3-methoxyphenyl)(2-oxa-7-azaspiro[3.5]nonan-7-yl)methanone] |  |  |  |  | < 30 | < 10 |
